Measurements from ChEMBL document CHEMBL1201862, “PubChem BioAssay data set” (2004).
Activity calls are given as the source filed them.

Tests used:
[1] = target: Glyceraldehyde-3-phosphate dehydrogenase (Homo sapiens, UniProt P04406)
Bcl-2-related protein A1 [2] = target: T1, Bcl-2-related protein A1 (Mus musculus, UniProt Q07440); assay: Bfl-1 binding inhibitors, SAR follow-up, biochemical, fluorescence polarization (AID 1070)
T1 sequence (Q07440 whole entry): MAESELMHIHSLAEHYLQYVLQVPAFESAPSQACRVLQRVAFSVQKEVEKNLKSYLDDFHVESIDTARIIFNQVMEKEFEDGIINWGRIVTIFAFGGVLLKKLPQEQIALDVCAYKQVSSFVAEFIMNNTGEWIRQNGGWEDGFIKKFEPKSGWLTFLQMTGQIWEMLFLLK

Bcl-2-related protein A1 [3] = target: T1, Bcl-2-related protein A1; assay: small-molecule antagonists of Bfl-1/BH3 interaction – biochemical, TR-FRET, mouse Bfl-1, confirmation (AID 621);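 note: TR-FRET binding of GST-Bfl-1 to FITC-labelled Bid peptide via terbium antibody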
[4] = target: Protein-tyrosine kinase 2-beta (Homo sapiens, UniProt Q14289);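 note: potency of inhibitors of PYK2 kinase phosphorylation of poly-GT substrate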
NADPH oxidase 1 = target: T2, NADPH oxidase 1 (Homo sapiens, UniProt Q9Y5S8); assay: Late-stage luminescence-based cell-based dose response assay to identify inhibitors of NADPH oxidase 1 (NOX1): Synthesized analogs.; type: functional
T2 sequence (Q9Y5S8 whole entry): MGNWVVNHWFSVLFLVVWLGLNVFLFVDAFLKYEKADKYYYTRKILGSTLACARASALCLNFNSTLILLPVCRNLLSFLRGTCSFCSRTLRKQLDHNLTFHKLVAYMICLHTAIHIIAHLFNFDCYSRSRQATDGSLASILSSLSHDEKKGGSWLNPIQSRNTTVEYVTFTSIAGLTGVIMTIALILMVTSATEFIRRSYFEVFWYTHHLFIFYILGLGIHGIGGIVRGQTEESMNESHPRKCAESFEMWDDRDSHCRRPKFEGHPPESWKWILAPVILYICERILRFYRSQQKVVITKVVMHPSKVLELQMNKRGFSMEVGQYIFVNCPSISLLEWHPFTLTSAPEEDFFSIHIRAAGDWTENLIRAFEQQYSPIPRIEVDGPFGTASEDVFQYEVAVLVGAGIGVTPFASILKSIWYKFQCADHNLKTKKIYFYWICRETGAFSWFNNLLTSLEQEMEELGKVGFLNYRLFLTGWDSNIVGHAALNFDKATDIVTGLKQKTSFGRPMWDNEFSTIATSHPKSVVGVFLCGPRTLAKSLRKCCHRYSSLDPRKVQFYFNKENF

[5] = target: Potassium voltage-gated channel subfamily KQT member 2 (Rattus norvegicus, UniProt O88943, W236L); assay: potentiation of rat KCNQ2 current – cell-based, automated electrophysiology, mechanism study for KCNQ2 potentiator project, dose response (AID 2603); type: functional
H4 = assay: Luminescence Cell-Based Dose Response HTS to Identify Activators of 5'UTR Stem-Loop Driven Prion Protein mRNA Translation in H4 Neuroglioblastoma Cells. [Related pubchem assays: 1829 (Project Summary), 1814 (Primary HTS)]; type: functional; conditions: Homo sapiens
[6] = Luminescence Cell-Based Dose Response HTS to Identify Activators of Luciferase Translation or Activity in H4 […] Cells. [Related pubchem assays: 1829 (Project Summary), 1814 (Primary HTS)]; type: functional
[7] = Luminescence Cell-Based Dose Confirmation to Identify Activators of 5'UTR Stem-Loop Driven Alpha-Synuclein mRNA Translation in H4 Neuroglioblastoma Cells. [Related pubchem assays: 1829 (Project Summary), 1814 (Primary HTS)]; type: functional
[8] = Luminescence Cell-Based Dose Response to Identify Activators of Luciferase Translation or Activity in H4-C Neuroglioblastoma Cells. [Related pubchem assays: 1829 (Project Summary), 1814 (Primary HTS)]; type: functional
[9] = Luminescence Cell-Based Dose Response to Identify Activators of 5'UTR Stem-Loop Driven Prion Protein mRNA Translation in H4-C Neuroglioblastoma Cells. [Related pubchem assays: 1829 (Project Summary), 1814 (Primary HTS)]; type: functional
[10] = target: T3, E3 ubiquitin-protein ligase XIAP (Homo sapiens, UniProt P98170); assay: small molecules displacing peptide from XIAP – biochemical, IAP family, fluorescence polarization (AID 1018); type: functional
[11] = target: T3, E3 ubiquitin-protein ligase XIAP; assay: Counter Screen using XIAP-Bir3 for Chemical Antagonists of Bir1/2 domains of IAP-family anti-apoptotic proteins. [Related pubchem assays (depositor defined):AID1018, AID1449, AID1514, AID1638, AID1749, AID1750, AID488957, AID488963]
Caspase-6 = target: T4, Caspase-6 (Homo sapiens, UniProt P55212); assay: inhibition of CASP6 peptide cleavage – biochemical, VEID-R110 fluorescence, cherry-pick, dose response (AID 720632)
T4 sequence (P55212 whole entry): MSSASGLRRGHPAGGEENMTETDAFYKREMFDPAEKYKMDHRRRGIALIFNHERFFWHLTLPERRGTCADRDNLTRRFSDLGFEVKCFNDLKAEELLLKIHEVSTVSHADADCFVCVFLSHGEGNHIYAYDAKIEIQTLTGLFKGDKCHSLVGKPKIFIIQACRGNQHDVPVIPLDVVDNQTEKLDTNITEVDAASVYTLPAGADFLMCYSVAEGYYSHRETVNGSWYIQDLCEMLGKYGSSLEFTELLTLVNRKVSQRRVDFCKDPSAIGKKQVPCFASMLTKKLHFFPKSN

[12] = target: Induced myeloid leukemia cell differentiation protein Mcl-1 (Homo sapiens, UniProt Q07820); assay: blockers of MCL1 binding to BIM peptide – biochemical, fluorescence polarization, BIM-BH3 peptide, 1536-well, dose response (AID 2217)
Caspase-7 = Caspase-7 (Homo sapiens, UniProt P55210); assay: caspase-7 enzyme inhibition, selectivity check – biochemical, DEVD-R110 fluorescence, cherry-pick, selectivity assay for caspase-6 inhibitor project, dose response (AID 743295); type: functional
Caspase-8 = Caspase-8 (Homo sapiens, UniProt Q14790); assay: inhibitors of purified CASP8 protease – biochemical, Z-IETD-R110 fluorescence, cherry-picked samples, selectivity assay for caspase-6 inhibitor project, dose response (AID 743294)
[13] = target: T5, Carboxy-terminal domain RNA polymerase II polypeptide A small phosphatase 1 (Homo sapiens, UniProt Q9GZU7); assay: CTDSP1 inhibitors, concentration-response, biochemical, absorbance readout, ultra-high-throughput screen actives (AID 540297); type: functional
T5 sequence (Q9GZU7 whole entry): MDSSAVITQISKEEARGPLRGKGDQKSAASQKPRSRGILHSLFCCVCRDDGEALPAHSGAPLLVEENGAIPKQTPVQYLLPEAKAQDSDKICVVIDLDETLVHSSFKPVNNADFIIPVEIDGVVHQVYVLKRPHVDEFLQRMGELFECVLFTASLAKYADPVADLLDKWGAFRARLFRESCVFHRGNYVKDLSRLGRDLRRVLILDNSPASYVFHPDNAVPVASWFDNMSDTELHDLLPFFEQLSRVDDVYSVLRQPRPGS

Bcl-2-like protein 1 = Bcl-2-like protein 1 (Homo sapiens, UniProt Q07817); assay: blockers of BCLXL peptide binding – biochemical, fluorescence polarization, 1536-well, selectivity assay for MCL1 inhibitor project, dose response (AID 2218)
Chain of Bcl-2-like protein 1 (Q07817 whole entry): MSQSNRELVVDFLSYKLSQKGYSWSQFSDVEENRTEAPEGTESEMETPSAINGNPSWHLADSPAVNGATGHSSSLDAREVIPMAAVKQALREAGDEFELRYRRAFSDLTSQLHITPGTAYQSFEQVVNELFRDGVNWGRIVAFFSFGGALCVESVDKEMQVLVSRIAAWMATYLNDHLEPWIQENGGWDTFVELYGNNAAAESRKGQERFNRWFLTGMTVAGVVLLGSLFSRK

T3 sequence (P98170 whole entry): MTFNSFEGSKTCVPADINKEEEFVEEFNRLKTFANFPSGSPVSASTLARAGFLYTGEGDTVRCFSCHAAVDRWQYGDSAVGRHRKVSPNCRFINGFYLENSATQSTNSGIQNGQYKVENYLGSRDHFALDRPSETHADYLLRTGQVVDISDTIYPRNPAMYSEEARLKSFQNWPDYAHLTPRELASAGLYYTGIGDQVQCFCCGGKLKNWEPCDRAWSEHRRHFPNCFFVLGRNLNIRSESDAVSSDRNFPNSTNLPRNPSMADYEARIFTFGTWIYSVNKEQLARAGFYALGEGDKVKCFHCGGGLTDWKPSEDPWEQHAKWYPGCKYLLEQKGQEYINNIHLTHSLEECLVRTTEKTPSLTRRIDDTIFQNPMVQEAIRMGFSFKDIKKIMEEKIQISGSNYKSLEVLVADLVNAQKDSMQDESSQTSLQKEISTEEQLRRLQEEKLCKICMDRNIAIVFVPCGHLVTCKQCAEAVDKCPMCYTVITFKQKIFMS
Chain of Glyceraldehyde-3-phosphate dehydrogenase (P04406 whole entry): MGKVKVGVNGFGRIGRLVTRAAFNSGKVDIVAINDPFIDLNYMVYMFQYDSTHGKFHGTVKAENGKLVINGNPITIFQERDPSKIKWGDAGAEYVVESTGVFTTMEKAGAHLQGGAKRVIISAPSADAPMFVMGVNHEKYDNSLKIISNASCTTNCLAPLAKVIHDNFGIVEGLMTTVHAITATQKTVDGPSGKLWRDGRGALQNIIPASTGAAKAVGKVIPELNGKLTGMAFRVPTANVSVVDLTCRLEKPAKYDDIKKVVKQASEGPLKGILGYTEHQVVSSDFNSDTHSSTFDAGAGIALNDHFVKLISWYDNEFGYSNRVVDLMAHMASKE
Chain of Potassium voltage-gated channel subfamily KQT member 2 (O88943 whole entry W236L): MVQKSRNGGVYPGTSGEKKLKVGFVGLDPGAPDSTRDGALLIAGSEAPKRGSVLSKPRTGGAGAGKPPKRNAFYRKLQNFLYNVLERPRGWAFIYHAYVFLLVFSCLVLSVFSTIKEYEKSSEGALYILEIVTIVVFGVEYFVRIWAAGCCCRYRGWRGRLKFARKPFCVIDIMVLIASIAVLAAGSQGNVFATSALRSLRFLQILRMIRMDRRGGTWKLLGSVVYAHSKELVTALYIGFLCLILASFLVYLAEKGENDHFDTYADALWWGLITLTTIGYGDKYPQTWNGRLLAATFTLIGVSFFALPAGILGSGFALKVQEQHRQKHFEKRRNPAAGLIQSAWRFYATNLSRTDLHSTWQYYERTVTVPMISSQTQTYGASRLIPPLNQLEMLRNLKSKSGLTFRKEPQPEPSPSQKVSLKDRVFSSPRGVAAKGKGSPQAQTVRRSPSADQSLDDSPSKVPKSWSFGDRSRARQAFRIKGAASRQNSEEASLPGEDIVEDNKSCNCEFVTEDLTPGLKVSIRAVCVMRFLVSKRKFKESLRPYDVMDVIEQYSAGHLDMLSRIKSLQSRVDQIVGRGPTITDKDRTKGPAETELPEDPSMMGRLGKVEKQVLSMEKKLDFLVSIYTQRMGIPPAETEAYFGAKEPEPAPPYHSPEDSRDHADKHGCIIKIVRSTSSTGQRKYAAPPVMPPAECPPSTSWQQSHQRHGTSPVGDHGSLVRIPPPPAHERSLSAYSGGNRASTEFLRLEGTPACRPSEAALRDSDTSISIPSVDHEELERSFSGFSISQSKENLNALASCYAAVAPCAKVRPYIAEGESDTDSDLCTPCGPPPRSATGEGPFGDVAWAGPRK
Chain of Induced myeloid leukemia cell differentiation protein Mcl-1 (Q07820 whole entry): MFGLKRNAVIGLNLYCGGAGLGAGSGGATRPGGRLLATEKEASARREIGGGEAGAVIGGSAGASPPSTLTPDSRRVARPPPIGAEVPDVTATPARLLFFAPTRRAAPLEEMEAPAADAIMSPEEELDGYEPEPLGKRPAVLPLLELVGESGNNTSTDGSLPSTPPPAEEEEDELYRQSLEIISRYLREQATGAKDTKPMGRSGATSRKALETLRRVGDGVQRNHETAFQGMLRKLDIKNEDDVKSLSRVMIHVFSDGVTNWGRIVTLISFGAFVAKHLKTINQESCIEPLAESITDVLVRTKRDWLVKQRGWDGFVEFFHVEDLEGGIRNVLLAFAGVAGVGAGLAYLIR
Chain of Protein-tyrosine kinase 2-beta (Q14289 whole entry): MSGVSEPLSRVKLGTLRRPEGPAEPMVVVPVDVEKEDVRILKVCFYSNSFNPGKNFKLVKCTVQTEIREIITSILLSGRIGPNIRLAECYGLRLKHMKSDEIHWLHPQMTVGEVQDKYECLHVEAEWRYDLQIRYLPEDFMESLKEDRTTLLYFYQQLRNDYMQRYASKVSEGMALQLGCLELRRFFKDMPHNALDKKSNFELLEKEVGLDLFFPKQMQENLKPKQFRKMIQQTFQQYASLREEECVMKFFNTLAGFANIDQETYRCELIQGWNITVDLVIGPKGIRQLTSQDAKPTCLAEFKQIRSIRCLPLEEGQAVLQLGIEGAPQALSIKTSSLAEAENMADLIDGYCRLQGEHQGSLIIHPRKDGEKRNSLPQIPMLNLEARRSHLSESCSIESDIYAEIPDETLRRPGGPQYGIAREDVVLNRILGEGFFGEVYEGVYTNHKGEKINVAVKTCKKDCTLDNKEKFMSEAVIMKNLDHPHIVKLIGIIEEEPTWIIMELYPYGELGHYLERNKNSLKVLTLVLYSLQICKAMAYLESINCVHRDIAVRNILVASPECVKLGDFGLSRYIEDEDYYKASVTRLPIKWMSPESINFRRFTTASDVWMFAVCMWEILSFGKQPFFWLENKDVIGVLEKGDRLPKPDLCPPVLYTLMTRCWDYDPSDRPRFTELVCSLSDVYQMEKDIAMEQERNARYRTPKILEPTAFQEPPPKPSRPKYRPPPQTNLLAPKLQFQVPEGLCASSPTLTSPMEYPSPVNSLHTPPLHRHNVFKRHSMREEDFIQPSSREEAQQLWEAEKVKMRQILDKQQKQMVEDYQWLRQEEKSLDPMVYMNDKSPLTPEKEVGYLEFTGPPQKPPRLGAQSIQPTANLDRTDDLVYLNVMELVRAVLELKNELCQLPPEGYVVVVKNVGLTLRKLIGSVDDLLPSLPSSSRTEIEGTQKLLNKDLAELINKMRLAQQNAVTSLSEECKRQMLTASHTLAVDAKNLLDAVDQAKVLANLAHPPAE
Chain of Caspase-8 (Q14790 217-374 limits assumed): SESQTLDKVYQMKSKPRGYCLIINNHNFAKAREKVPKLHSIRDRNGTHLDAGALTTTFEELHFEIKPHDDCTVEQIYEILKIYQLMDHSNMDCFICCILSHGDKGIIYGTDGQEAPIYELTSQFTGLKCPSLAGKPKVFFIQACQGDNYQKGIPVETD
Chain of Caspase-8 (Q14790 385-479 limits assumed): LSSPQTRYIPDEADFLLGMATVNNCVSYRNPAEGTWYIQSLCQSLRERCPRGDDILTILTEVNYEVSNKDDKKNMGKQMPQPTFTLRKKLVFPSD
Chain of Caspase-7 (P55210 24-198 limits assumed): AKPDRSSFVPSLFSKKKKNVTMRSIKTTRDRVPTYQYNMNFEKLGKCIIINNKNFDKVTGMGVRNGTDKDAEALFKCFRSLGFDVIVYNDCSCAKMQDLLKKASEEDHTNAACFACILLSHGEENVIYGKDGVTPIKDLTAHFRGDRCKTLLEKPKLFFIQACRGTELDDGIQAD
Chain of Caspase-7 (P55210 207-303 limits assumed): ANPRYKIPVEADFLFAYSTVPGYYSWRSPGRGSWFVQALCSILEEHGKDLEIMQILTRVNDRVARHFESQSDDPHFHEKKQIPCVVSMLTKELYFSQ

CN1CCN(C2=C(Cl)C(=O)N(c3cc(Cl)cc(Cl)c3)C2=O)CC1
IC50 [1]: > 100 µM (not active)
IC50 (Bcl-2-related protein A1 [2]): 2.44 µM (active)
IC50 (Bcl-2-related protein A1 [3]): 1.66 µM (active)

O=C1NCCc2c1[nH]c1c(Cl)ccc(Cl)c21
IC50 [4]: 10.2 µM (not active)

CC(=NNC(=O)c1ccc(O)cc1)c1ccc2c(c1)Nc1ccccc1S2
IC50 (NADPH oxidase 1): 0.382 µM (active)

Cc1ccc(NC(=O)C2CC2c2ccccc2)c([N+](=O)[O-])c1 (centres undefined)
EC50 [5]: 11.4 µM (active)

CS(=O)(=O)c1nc(S(=O)(=O)c2ccc(Cl)cc2)c(N2CCC3(CC2)OCCO3)s1
EC50 (H4): > 120 µM (not active)
EC50 [6]: < 0.1 µM (active)
EC50 [7]: 0.71 µM (active)
EC50 [8]: > 12 µM (not active)
EC50 [9]: > 12 µM (not active)

COc1ccc(NC(=O)/C(=C/c2cccnc2)NC(=O)c2cccs2)cc1
IC50 [10]: > 100 µM (not active)
IC50 [11]: > 100 µM (inactive)

Cc1cccc(NC(=O)CNC(=O)c2cccc(-n3cccc3)c2)c1C
AC50 (Caspase-6): 1.55 µM (active)
IC50 [12]: 8.77 µM (active)
AC50 (Caspase-7): > 70 µM (inactive)
AC50 (Caspase-8): > 70 µM (inactive)
IC50 [13]: 3.97 µM (active)
IC50 (Bcl-2-like protein 1): > 109 µM (not active)
